Data reported in patent publication US9822336B2, “Blastoid, cell line based artificial blastocyst” (Universiteit Maastricht, priority 2013, dated 2017).

What was measured:
Format in all cases: cell-based, mouse
ES-TS cell clusters [1] = assay: Cavitation of ES-TS cell clusters (yield of cavitated blastoids); conditions: for yield of blastoids cavitation: FIG. 4i, added to CHIR99021 3 uM, versus control with CHIR99021 3 uM only; for yield of cavitated blastoids / cavitation: FIG. 4h
Method: FIG. 4c: […], The yield of cavitated blastoids is described by the percentage of ES-TS cell clusters that were cavitated after 96 hours of culture, thus forming an artificial blastocyst or blastoid. […]
The efficiency of blastoid formation is measured as the percentage of cavitated structures with (1) an external cellular layer expressing the transcription factors CDX2, Eomes and GATA3 and (2) an internal cellular aggregate expressing the transcription factors Oct4 and Sox2 and at least partly Nanog.
The formation of a cavity is assessed by the formation of a volume within the aggregate that is not occupied by cellular nucleus. The formation of a cavity is preferably assessed using the cross-sectional section of a cellular aggregate stained with a nuclear-specific dye (for example DAPI).
• Double layer formation: the formation of an (at least) double layered cell aggregate with an external layer of TS cells and an inner layer of ES cells is evaluated using transgenic cell lines. Specifically, ES cells were transfected with Histone 2B and a Red Fluorescent Protein under the control of a cytomegalovirus promoter and clonally derived. The H2B-RFP ES cells are thus constitutively expressing a red fluorescence within their nucleus which allows for their tracking. • TS cells were derived from a mouse constitutively expressing Green Fluorescent Protein (GFP) under the control of a cytomegalovirus promoter in all cells. The GFP TS cells are thus expressing a green fluorescence in their cytoplasma which allows for their tracking. • The formation of a double-layered aggregate is thus assessed by observing a green outer layer of cells and a red inner layer of cells. The efficiency of engulfment is determined as the percentage of green-colored projection area (representing the TS cell layer) that overlaps with an artificial 3-pixel-wide ring drawn around the red-colored projection area (representing the inner aggregate of ES cells) after 24 hours of culturing the ES-TS cell clusters. The said efficiency of engulfment described in FIG. 4 represents the average value taken from approximately 200 ES-TS cell clusters. • Cavitation: The formation of a cavity is assessed by the formation of a volume within the aggregate that is not occupied by cellular nucleus. The formation of a cavity is preferably assessed using the cross-sectional section of a cellular aggregate stained with a nuclear-specific dye (for example DAPI). […] The expression of cdx2 is assessed as the number of GFP positive cells with a cdx2 positive nucleus per 10 μm microscopic section. The expression of the transcription factors Oct4 and Nanog is assessed by conventional immunocytochemistry in ES-TS aggregates including H2B-RFP expressing ES cells. The expression of Oct4 and Nanog is assessed as the number of H2B-RFP positive cells with an Oct4 or Nanog positive nucleus per 10 μm microscopic section. Pictoral Summary of the Procedure for Blastoid Formation: […]

[2] = tested on: inner cell mass (ICM) of blastoids; assay: Size of inner cell mass (ICM) in cavitated blastoids, projection area; conditions: up to a concentration of 1000 μM (FIG. 4f)
Text: FIG. 4d: size of inner cell mass (ICM) as a function of the average number of ES-cells seeded per microwell. Size of ICM, measured as the projection area of the ES cell cluster inside the cavitated blastoid, increases with increasing numbers of ES cells seeded per microwell.
The size of the inner cell mass (ICM) depends on the average number of ES-cells seeded, and increases with the number of ES-cells seeded per microwell as described in FIG. 4. The size as defined by its projection area is generally between 1000 and 5000 um^2, preferably between 2000 and 4500 um^2. The size is conveniently expressed by determining the projection area (in um^2) of the ICM through light microscopy.

ES-TS cell clusters [3] = assay: Efficiency of engulfment during formation of ES-TS cell clusters; conditions: at higher concentration of Y27632; after 24 hours of culture (FIG. 4a)
Method: Mouse TS-cells were seeded at 17 cells/microwell in 150 μL B27N2 medium. After 20 minutes, 1 ml of B27N2 medium was added that included 10% FBS, Y27632 20 μM, 8Br-cAMP (1 mM), 007-AM (1 nM) and CHIR 3 μM, FGF4 15 ng/ml, Tgfb1 5 ng/ml, IGF2, 10 ng/ml, estradiol 10 ng/ml. The cells were placed in an incubator set at 37° Celsius to form the ES-TS cell cluster. • Double layer formation: the formation of an (at least) double layered cell aggregate with an external layer of TS cells and an inner layer of ES cells is evaluated using transgenic cell lines. […] The H2B-RFP ES cells are thus constitutively expressing a red fluorescence within their nucleus which allows for their tracking. • TS cells were derived from a mouse constitutively expressing Green Fluorescent Protein (GFP) under the control of a cytomegalovirus promoter in all cells. The GFP TS cells are thus expressing a green fluorescence in their cytoplasma which allows for their tracking. • The formation of a double-layered aggregate is thus assessed by observing a green outer layer of cells and a red inner layer of cells. […] The said efficiency of engulfment described in FIG. 4 represents the average value taken from approximately 200 ES-TS cell clusters. • Cavitation: The formation of a cavity is assessed by the formation of a volume within the aggregate that is not occupied by cellular nucleus. […]

[4] = tested on: Cdx2 expression in trophoblast stem cells of ES-TS aggregates; assay: Cdx2 expression by CDX2 immunostaining; conditions: CDX2 immunostaining (FIG. 4g)
Method: • Double layer formation: the formation of an (at least) double layered cell aggregate with an external layer of TS cells and an inner layer of ES cells is evaluated using transgenic cell lines. Specifically, ES cells were transfected with Histone 2B and a Red Fluorescent Protein under the control of a cytomegalovirus promoter and clonally derived. The H2B-RFP ES cells are thus constitutively expressing a red fluorescence within their nucleus which allows for their tracking. • TS cells were derived from a mouse constitutively expressing Green Fluorescent Protein (GFP) under the control of a cytomegalovirus promoter in all cells. The GFP TS cells are thus expressing a green fluorescence in their cytoplasma which allows for their tracking. • The formation of a double-layered aggregate is thus assessed by observing a green outer layer of cells and a red inner layer of cells. The efficiency of engulfment is determined as the percentage of green-colored projection area (representing the TS cell layer) that overlaps with an artificial 3-pixel-wide ring drawn around the red-colored projection area (representing the inner aggregate of ES cells) after 24 hours of culturing the ES-TS cell clusters. […] The formation of a cavity is preferably assessed using the cross-sectional section of a cellular aggregate stained with a nuclear-specific dye (for example DAPI). […]

`Nc1ncnc2c1nc(Br)n2[C@@H]1O[C@@H]2COP(=O)(O)O[C@H]2[C@H]1O` [8Br-cAMP] was tested, and the yield of cavitation (ES-TS cell clusters [1]; 8Br-cAMP 0.1-10 mM, for example 1 mM) was “increases the yield of cavitation”, the “yield of blastoids cavitation” value (ES-TS cell clusters [1]) was “increase the yield of blastoids cavitation” and the “size of ICM” value [2] was “positively correlates with an increase in the size of ICM”.
With `Cc1c[nH]c(-c2cnc(NCCNc3ccc(C#N)cn3)nc2-c2ccc(Cl)cc2Cl)n1` [CHIR99021, 6-{2-[4-(2,4-dichloro-phenyl)-5-(4-methyl-1H-imidazol-2-yl)-pyrimidin-2-ylamino]-ethylamino}-nicotinonitrile] the blastoid yield (ES-TS cell clusters [1]; CHIR99021 at 3 uM) was 10%, the blastoid yield (ES-TS cell clusters [1]; CHIR99021 at 20 uM) was ~30% and the “yield of cavitated blastoids / cavitation” value (ES-TS cell clusters [1]; CHIR99021 at 3 uM) was “increases the yield of cavitated blastoids”. The “yield of cavitated blastoids” value (ES-TS cell clusters [1]; increasing concentrations (FIG. 4e)) was “positively correlate with an increase in the yield of cavitated blastoids”.
`CC(C)[C@H]1C(=O)N[C@H](CO)Cc2c[nH]c3cccc(c23)N1C` [Indolactam V] was tested, and the “yield of blastoids cavitation” value (ES-TS cell clusters [1]) was “increase the yield of blastoids cavitation” and the yield of cavitation (ES-TS cell clusters [1]; Indolactam V 0.1-10 uM, for example 1 uM) was “increases the yield of cavitation”.
With `Oc1nc(-c2ccc(C(F)(F)F)cc2)nc2c1CSCC2` [XAV939] the “yield of cavitated blastoids / cavitation” value (ES-TS cell clusters [1]; CHIR99021 at 3 uM) was “prevents the cavitation of blastoids”.
In the case of `C[C@@H](N)[C@H]1CC[C@H](C(=O)Nc2ccncc2)CC1` [Y27632, (1R,4r)-4-((R)-1-aminoethyl)-N-(pyridin-4-yl)cyclohexanecarboxamide], the efficiency of engulfment (ES-TS cell clusters [3]) is reported as “increase in efficiency of engulfment”.
“IGF2: a protein and a growth factor known in the art to activate the Akt pathway” was tested, and the Cdx2 expression [4] was “positively correlates with an increase of Cdx2 expression”.
